System: HUVECs
Test: Thrombin induced stress fiber formation in endothelial cells
Assay type: cell-based, human
Conditions: aminosterol 20 μM, thrombin 20 ng/ml, 2 hours
Protocol: The basic methods have been published (Williams, […] et al. 2001). HUVECs were grown on fibronectin-covered coverslips in EGM medium. […] Following a rinse, the cells were exposed to a 1:400 dilution of an FITC-goat antimurine antibody and 250 ng/ml TRITC phalloidin. The stained coverslips were visualized by fluorescence microscopy.

How did the “Disruption of thrombin induced stress fiber formation” value (“Disruption” for short) turn out when CC(C)[C@H](CC[C@@H](C)[C@H]1CC[C@H]2[C@@H]3[C@H](O)C[C@H]4C[C@@H](NCCCNCCCCN)CC[C@]4(C)[C@H]3CC[C@]12C)OS(=O)(=O)O [Compound C] was run?
Its value is “disrupt thrombin induced stress fiber formation and inhibited thrombin-induced stress fiber formation and Yes”.

How did the “Disruption” value turn out when CC(C)[C@@H](CC[C@@H](C)[C@H]1CC[C@H]2[C@@H]3[C@H](O)C[C@H]4C[C@H](NCCCNCCCCN)CC[C@]4(C)[C@H]3CC[C@]12C)OS(=O)(=O)O [Compound B] was run?
The value was “disrupt thrombin induced stress fiber formation and inhibited thrombin-induced stress fiber formation and Yes”.

For CC(C)[C@@H](CC[C@@H](C)[C@H]1CC[C@H]2[C@@H]3[C@@H](O)C[C@H]4C[C@@H](NCCCNCCCCN)CC[C@]4(C)[C@H]3CC[C@]12C)OS(=O)(=O)O [Compound A], which “Disruption” value is on record?
Its value is “disrupt thrombin induced stress fiber formation and inhibited thrombin-induced stress fiber formation and Yes”.

With CC(C)[C@@H](CC[C@@H](C)[C@H]1CC[C@H]2[C@@H]3[C@H](O)C[C@H]4C[C@@H](NCCCOCCCN)CC[C@]4(C)[C@H]3CC[C@]12C)OS(=O)(=O)O [Compound F] as the molecule, how does the “Disruption” value read?
Its value is “not observed and No”.

How did the “Disruption” value turn out when CC(C)[C@@H](CC[C@@H](C)[C@H]1CC[C@H]2[C@@H]3[C@H](O)C[C@H]4CC(N)CC[C@]4(C)[C@H]3CC[C@]12C)OS(=O)(=O)O (stereo partly drawn) [Compound E] was run?
The value was “not observed and No”.

Which “Disruption” value does the source give for CC(C)[C@@H](CC[C@H](C)[C@H]1CC[C@H]2[C@@H]3[C@H](O)C[C@H]4C[C@@H](NCCCNCCCCN)CC[C@]4(C)[C@H]3CC[C@]12C)OS(=O)(=O)O [Compound D] here?
The value was “not observed and inactive and No”.
